Results: patent US5643923A, “Quinuclidinyloxy-isoxazole compounds and their therapeutic uses” (Sankyo Company, Limited, priority 1990, dated 1997)
Structures can show the parent of a compound that is named as a salt. Where two headings read alike, the source gives them in different places.

Assays:
M2 receptors = target: T1, M2 receptors (Rattus norvegicus, UniProt P10980); experiment: biochemical; format: binding
T1 sequence (P10980 1-466): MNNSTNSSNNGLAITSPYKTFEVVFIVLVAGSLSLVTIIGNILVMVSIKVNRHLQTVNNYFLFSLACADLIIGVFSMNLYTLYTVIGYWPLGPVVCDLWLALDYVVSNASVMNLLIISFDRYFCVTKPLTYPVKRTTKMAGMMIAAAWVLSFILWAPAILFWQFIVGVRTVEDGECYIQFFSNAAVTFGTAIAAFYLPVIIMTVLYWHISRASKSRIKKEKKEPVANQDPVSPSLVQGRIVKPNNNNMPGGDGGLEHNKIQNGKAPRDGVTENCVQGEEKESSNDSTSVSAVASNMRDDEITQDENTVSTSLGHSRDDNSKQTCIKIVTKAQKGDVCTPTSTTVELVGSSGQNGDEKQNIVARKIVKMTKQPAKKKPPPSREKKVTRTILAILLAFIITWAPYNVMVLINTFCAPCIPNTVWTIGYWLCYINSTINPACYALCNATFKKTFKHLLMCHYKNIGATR

M1 receptors = target: T2, M1 receptors (Rattus norvegicus, UniProt P08482); experiment: biochemical; format: binding
T2 sequence (P08482 1-460): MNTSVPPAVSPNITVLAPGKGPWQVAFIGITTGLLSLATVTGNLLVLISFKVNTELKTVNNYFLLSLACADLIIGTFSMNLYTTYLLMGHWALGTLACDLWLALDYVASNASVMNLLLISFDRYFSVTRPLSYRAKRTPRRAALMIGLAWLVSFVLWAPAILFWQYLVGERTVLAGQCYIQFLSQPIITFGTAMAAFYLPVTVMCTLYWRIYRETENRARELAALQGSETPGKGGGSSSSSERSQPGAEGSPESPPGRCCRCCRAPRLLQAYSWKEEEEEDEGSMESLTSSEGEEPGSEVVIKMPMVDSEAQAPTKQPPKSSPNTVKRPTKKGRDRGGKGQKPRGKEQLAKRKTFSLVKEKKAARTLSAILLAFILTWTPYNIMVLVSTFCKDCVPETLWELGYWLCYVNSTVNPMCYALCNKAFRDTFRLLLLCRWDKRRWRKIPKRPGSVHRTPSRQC

[1] = tested on: reserpine-induced ptosis in mice; experiment: Anti-reserpine effect: antagonistic effect against reserpine-induced ptosis; format: in vivo, mouse (ddY strain); conditions: for Maximum inhibition rate (%): reserpine 2 mg/kg s.c., 90 minutes
Source text: It is considered that the sedation caused by the administration of reserpine or tetrabenazine to mice or rats produces an effect similar to the symptoms of clinical depression. Of the various pharmacological effects caused by these compounds, ptosis (drooping of the upper eyelid) and a reduction in body temperature have been widely used as indices of their activity, and it has been shown that any compound which inhibits either ptosis or lowering of the body temperature will also be active against the symptoms of clinical depression. Therefore, anti-reserpine or anti-tetrabenazine effects have been widely used for a long time as a method of screening for antidepressants. The test index used for the evaluation of the compounds of the present invention is the antagonistic effect of a test compound against reserpine-induced ptosis in mice.
The test animals employed were mature male mice of the ddY strain, 4 weeks old and each weighing 22 to 27 g. The animals were divided into groups, each including 3 mice. The compound under test was dissolved or suspended in an appropriate solvent [either physiological saline or a 0.5% CMC (carboxymethyl cellulose) solution] and administered orally to the mice of the test groups in the dose specified in the following Table 6. The mice in a control group were given only the solvent without any active compound, administered in a similar way. Immediately after administration,2 mg/kg of reserpine were administered subcutaneously to every mouse. After 90 minutes, it was determined how much the eyelids had closed (degree of ptosis) by bringing the mouse out of its cage and observing the shape of the eye.
From the scores obtained, the inhibition rate at each dose level was calculated from the following equation: [formula]

mice = experiment: Acute toxicity; format: in vivo, mouse; conditions: 75 mg/kg, 5 days observation
Procedure: Each of the compounds of Examples 3 and 4 was suspended in a 0.5% CMC solution, and the suspension was administered to mice in an amount sufficient to provide a dose of active compound of 75 mg/kg.

[2] = tested on: blood viscosity increase resulting from cerebral ischemia; experiment: Inhibition of blood viscosity increase resulting from cerebral ischemia; format: in vivo, rat (Wistar strain); conditions: oral; one hour after carotid ligation; shear 37.5, 75, 150 and 375/sec
Procedure: The test animals used were adult male rats of the Wistar strain. Each rat was administered orally either a solution of 3-(3-quinuclidinyloxy)isoxazole hydrochloride (the compound prepared as described in Example 4) in suspension in a 0.5% CMC vehicle or the vehicle itself. Immediately after administration, 40 mg/kg of pentobarbital was administered intraperitoneally for anesthesia. The rat was fixed at the dorsal position, and 0.6 ml of a blood sample was taken from the common jugular vein on one side. The viscosity of each sample was measured using a viscometer (Biorheolyzer, a trade name for product of Tokyo Keiki) at shear values of 37.5/sec, 75/sec, 150/sec and 375/sec. 0.5 ml of blood was then taken from the other side and its viscosity was measured in the same way.
After the first two samples had been taken, the carotid arteries on both sides of each animal were ligated. One hour after ligation, in the case of the control animals (administered only the vehicle), the blood viscosity values had increased by between 5 and 20% at every shear rate (the slower the shear rate, the higher the viscosity).

[3] = tested on: isolated guinea pig ileum (selective 5-HT3 agonist 2-methyl-5-HT); experiment: Effects upon the isolated guinea pig ileum: inhibition of contraction by 2-methyl-5-HT; conditions: for Inhibition (%): 10^-6 M, contractile force by 2-methyl-5-HT, 30 minutes after addition
Procedure: The ileum isolated from a guinea pig was hung in a Magnus cup filled with Tyrode's solution. The contractile force exerted by the ileum on the application of a selective 5-HT3 agonist, 2-methyl-5-HT, was determined using an isometric transducer. A test compound was then added to the bath and the contractile force was again measured 30 minutes after the addition. The inhibition rate on the contractile force was calculated.

5-HT3 receptors = target: T3, 5-HT3 receptors (Rattus norvegicus, UniProt P35563); experiment: biochemical; format: binding
T3 sequence (P35563 24-483): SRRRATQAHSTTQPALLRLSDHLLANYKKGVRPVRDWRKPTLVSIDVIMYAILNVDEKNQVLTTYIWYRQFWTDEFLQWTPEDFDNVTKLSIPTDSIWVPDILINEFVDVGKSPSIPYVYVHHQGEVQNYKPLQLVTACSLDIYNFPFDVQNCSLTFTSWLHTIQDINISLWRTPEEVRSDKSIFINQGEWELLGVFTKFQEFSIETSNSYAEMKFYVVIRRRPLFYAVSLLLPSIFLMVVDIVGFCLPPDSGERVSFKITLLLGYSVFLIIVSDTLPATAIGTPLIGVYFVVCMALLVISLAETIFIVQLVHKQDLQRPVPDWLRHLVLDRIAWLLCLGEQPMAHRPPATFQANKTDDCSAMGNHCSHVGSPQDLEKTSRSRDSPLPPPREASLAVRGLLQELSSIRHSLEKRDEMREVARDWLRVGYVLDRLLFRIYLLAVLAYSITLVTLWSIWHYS
Procedure: A membranous fraction prepared from the cerebral cortex of rats was incubated with the test compound and with ^3 H-GR65630 (to a final concentration of 1 nM, as a ligand to the 5-HT3 receptors) at 37° C. for 45 minutes. At the end of this time, the samples were filtered. The ^3 H radioactivity bound to the filter paper was determined by a scintillation counter as in Experiment 1.

[4] = 3H-pirenzepine 1 nM, rat cerebral cortex membrane, 30° C., 60 minutes, read-out: IC50 Pirenzp (a) (cerebral cortex)
[5] = ratio IC50 QNB (heart) / IC50 Pirenzp (cerebral cortex)
[6] = 3H-GR65630 1 nM, rat cerebral cortex membrane, 37° C., 45 minutes

## CN1CCC(Oc2noc3ccc(Cl)cc23)CC1.Cl [Example A1, 5-Chloro-3-(1-methyl-4-piperidyloxy)-1,2-benzisoxazole hydrochloride]
M2 receptors; read-out: IC50 QNB (b) (heart)
  IC50: 41000 nM
M1 receptors; [4]
  IC50: 1900 nM
M1 receptors; [5]
  M1 selectivity (b)/(a): 22

## Cc1onc(OC2CN3CCC2CC3)c1Cl.Cl (stereo not shown) [Example A2, 4-Chloro-5-methyl-3-(3-quinuclidinyloxy)isoxazole hydrochloride]
[1]; 3 mg/kg po
  Assessment: - (not more than 40%)
  Maximum inhibition rate (%): 60%
[1]; 30 mg/kg po
  Assessment: + (inhibition rates not less than 71%)
  Maximum inhibition rate (%): 100%
mice
  adverse symptoms: nor did the mice exhibit any adverse symptoms
  deaths: no deaths were observed

## Cl.c1cc(OC2CN3CCC2CC3)no1 (stereo not shown) [Example A3, 3-(3-Quinuclidinyloxy)isoxazole hydrochloride]
[2]
  inhibition of blood viscosity increase: the increase was significantly inhibited at every shear rate
[1]; 1 mg/kg po
  Assessment: - (not more than 40%)
  Maximum inhibition rate (%): 21%
[1]; 3 mg/kg po
  Assessment: ± (from 41% to 70%)
  Maximum inhibition rate (%): 57%
[1]; 10 mg/kg po
  Assessment: + (inhibition rates not less than 71%)
  Maximum inhibition rate (%): 86%
[1]; 30 mg/kg po
  Assessment: + (inhibition rates not less than 71%)
  Maximum inhibition rate (%): 100%
mice
  adverse symptoms: nor did the mice exhibit any adverse symptoms
  deaths: no deaths were observed

## Cc1cc(OC2CN3CCC2CC3)no1.Cl (stereo not shown) [Example A4, 5-Methyl-3-(3-quinuclidinyloxy)isoxazole hydrochloride]
[1]; 30 mg/kg po
  Assessment: ± (from 41% to 70%)
  Maximum inhibition rate (%): 45%
[1]; 100 mg/kg po
  Assessment: + (inhibition rates not less than 71%)
  Maximum inhibition rate (%): 80%

## Cl.Clc1c(OC2CN3CCC2CC3)noc1-c1ccccc1 (stereo not shown) [Example A5, 4-Chloro-3-(3-quinuclidinyloxy)-5-phenylisoxazole hydrochloride]
[3]
  5-HT3 antagonist activity (in words): as potent an antagonist as ondansetron
  Inhibition (%): 82%
5-HT3 receptors
  IC50: 220 nM

## Clc1ccc2onc(OC3CN4CCC3CC4)c2c1 (stereo not shown) [Example A6, 5-Chloro-3-(3-quinuclidinyloxy)-1,2-benzisoxazole]
5-HT3 receptors; [6]
  IC50: 180 nM

## Clc1ccc(-c2cc(OC3CN4CCC3CC4)no2)cc1 (stereo not shown) [Example A7, 5-(p-Chlorophenyl)-3-(3-quinuclidinyloxy)isoxazole hydrochloride]
5-HT3 receptors
  IC50: 320 nM

## Clc1c(OC2CCCNC2)noc1-c1ccccc1 (stereo not shown) [Example A8, 4-Chloro-5-phenyl-3-(3-piperidyloxy)isoxazole hydrochloride]
5-HT3 receptors; [6]
  IC50: 260 nM

## c1csc(-c2cc(OC3CN4CCC3CC4)no2)c1 (stereo not shown) [Example A9, 3-(3-Quinuclidinyloxy)-5-(2-thienyl)isoxazole hydrochloride]
5-HT3 receptors
  IC50: 150 nM

## O=C1CCCN1CC#CCN1CCCC1 [Example B1, Oxotremorine]
M2 receptors
  IC50: 1200 nM
M1 receptors
  IC50: 1300 nM
  M1 selectivity (b)/(a): 0.9

## CCN1C(=O)CC2(CCN(C)CC2)C1=O [Example B2]
M2 receptors; read-out: IC50 QNB (b) (heart)
  IC50: 21000 nM
M1 receptors; [4]
  IC50: 3100 nM
M1 receptors; [5]
  M1 selectivity (b)/(a): 6.8

## CC1OC2(CS1)CN1CCC2CC1 (stereo not shown) [Example B3]
M2 receptors; 3H-quinuclidinyl benzylate 0.12 nM, rat heart membrane, 30° C., 120 minutes, read-out: IC50 QNB (b) (heart)
  IC50: 14000 nM
M1 receptors; [4]
  IC50: 3600 nM

## Cc1nccn1CC1CCc2c(c3ccccc3n2C)C1=O (stereo not shown) [Example B5, Ondansetron, reference compound]
[3]
  Inhibition (%): 79%
